# Laboratory results as given in US20240016777A1, “COMPOUNDS AND METHODS FOR TREATING VIRAL INFECTIONS” (priority 2020, published 2024).
# Molecular target: SARS-CoV-2 M^pro (Severe acute respiratory syndrome coronavirus 2 (2019-nCoV) (SARS-CoV-2), UniProt P0DTD1)
# Assay: biochemical
# Details: not given
row,Structure (SMILES),Mpro inhibitory activity (comparison in words)
1,O=C1CC(c2ccccc2)Oc2cc(O)cc(O)c21 (stereo not drawn) [Pinocembrin],relatively poor inhibition
2,COc1ccc(-c2cc(=O)c3c(O)cc(O)cc3o2)cc1-c1c(O)cc(O)c2c(=O)cc(-c3ccc(O)cc3)oc12 [bilobetin],comparable to amentoflavone

# Same assay, conditions: compound at 17 μM, duplicates, 20 min pre-incubation
row,Structure (SMILES),Activity (% enzyme activity by fluorescence relative to initial enzyme activity)
1,C=C(C)[C@H](CC=C(C)C)Cc1c(O)cc(O)c2c1O[C@H](c1ccc(O)cc1OC)CC2=O [Leachianone A],+ (≥80% enzyme activity as indicated by fluorescence measurements)

# Same assay, conditions: compound at 17 μM, duplicates, 20 min pre-incubation; read-out: Activity (% enzyme activity by fluorescence relative to initial enzyme activity)
row,Structure (SMILES),remaining activity at 17 µM
1,CC(C)=CCc1c(O)ccc(C(=O)[C@@H]2C(c3c(O)cc(O)c4c(=O)c(CC=C(C)C)c(-c5ccc(O)cc5O)oc34)C=C(C)CC2c2ccc(O)cc2O)c1O (stereo partly drawn) [Kuwanon H],10 to 80%
2,CC(C)=CCc1c(O)cc(O)c2c(=O)cc(-c3ccc(O)cc3)oc12 [Licoflavone C],> 80%
3,CC(C)=CCc1c(O)ccc(-c2coc3cc(O)cc(O)c3c2=O)c1O [Licoisoflavone A],> 80%
4,COc1cc(O)c2c(c1CC=C(C)C)O[C@H](c1cc(CC=C(C)C)c(O)cc1O)CC2=O [Maackiaflavanone],< 10%
5,CC(C)=CCc1c(-c2ccc(O)cc2O)oc2c3c(cc(O)c2c1=O)OC(C)(C)C=C3 [Morusin],10 to 80%
6,CC(C)=CCCC1=C[C@@H](c2c(O)cc3oc(-c4ccc(O)cc4O)cc(=O)c3c2O)[C@H](C(=O)c2ccc(O)cc2O)[C@@H](c2ccc(O)cc2O)C1 [Multicaulisin],< 10%
7,CC(C)=CCc1c2c(c3occ(-c4ccc(O)cc4)c(=O)c3c1O)C=CC(C)(C)O2 [Osajin],> 80%
8,CC(C)=CCc1c2c(c(O)c3c(=O)c(-c4ccc(O)c(O)c4)coc13)CC(C(C)(C)O)O2 (stereo not drawn) [furowanin A],10 to 80%
9,CC(C)=CCc1cc(-c2coc3cc(O)cc(O)c3c2=O)cc(O)c1O [glycyrrhisoflavone],> 80%
10,O=c1c(O)c(-c2ccc(O)cc2O)oc2cc(O)cc(O)c12 [morin],> 80%
11,CC(C)=CCC/C(C)=C\Cc1c(O)cc(O)c2c1O[C@H](c1ccc(O)cc1O)CC2=O [sophoraflavanone C],10 to 80%

# Same assay, conditions: compounds evaluated at 0.015-300 μM; read-out: IC50
row,Structure (SMILES),IC50
1,COc1cc(O)c2c(c1CC=C(C)C)O[C@H](c1cc(CC=C(C)C)c(O)cc1O)CC2=O [Maackiaflavanone],3 µM
2,CC(C)=CCCC1=C[C@@H](c2c(O)cc3oc(-c4ccc(O)cc4O)cc(=O)c3c2O)[C@H](C(=O)c2ccc(O)cc2O)[C@@H](c2ccc(O)cc2O)C1 [Multicaulisin],17 µM
3,CC(C)=CCc1c2c(c(O)c3c(=O)c(-c4ccc(O)c(O)c4)coc13)CC(C(C)(C)O)O2 (stereo not drawn) [furowanin A],7 µM
4,CC(C)=CCC/C(C)=C\Cc1c(O)cc(O)c2c1O[C@H](c1ccc(O)cc1O)CC2=O [sophoraflavanone C],63 µM

# Same assay, conditions: read-out: Activity (% enzyme activity by fluorescence relative to initial enzyme activity), compound at 17 μM, duplicates, 20 min pre-incubation
row,Structure (SMILES),remaining activity at 17 µM
1,C=C(C)[C@H](CCC(C)(C)O)Cc1c(O)cc(OC)c2c1O[C@H](c1ccc(O)cc1O)[C@H](O)C2=O [Kushenol K],> 80%
2,CC(C)=CCc1c(O)c(CC=C(C)C)c2c(c1O)C(=O)[C@H](O)[C@@H](c1ccc(O)cc1O)O2 [Kushenol L],> 80%
3,C=C(C)[C@H](CC=C(C)C)Cc1c(O)cc(OC)c2c1O[C@H](c1ccc(O)cc1O)[C@H](O)C2=O [Kushenol N],> 80%
4,COc1cc([C@@H]2CC(=O)c3c(O)cc(O)c(CC=C(C)C)c3O2)c(O)cc1O [Kushenol W],> 80%
5,C=C(C)C(CC=C(C)C)Cc1c(O)cc(O)c2c1O[C@H](c1ccc(O)cc1O)[C@@H](O)C2=O (stereo partly drawn) [Kushenol X],> 80%
6,CC(C)=CCCC1(C)C=Cc2c(cc3c(c2O)C(=O)C[C@@H](c2ccc(O)cc2O)O3)O1 (stereo partly drawn) [Kuwanol C],10 to 80%
7,CC(C)=CCc1c(O)cc(O)c2c1O[C@H](c1ccc(O)cc1O)CC2=O [Leachianone G],> 80%
8,CC(C)=CCc1c(O)cc2oc(-c3ccc(O)cc3)c(O)c(=O)c2c1O [Licoflavonol],> 80%
9,COc1c(CC=C(C)C)c(O)cc2c1C[C@H](c1ccc(O)c(CC=C(C)C)c1O)CO2 [Licoricidin],> 80%
10,COc1cc(O)c(-c2coc3cc(O)ccc3c2=O)c(OC)c1CC=C(C)C [Licoricone],> 80%
11,COc1cc2c(c(OC)c1CC=C(C)C)C[C@H](c1ccc(O)c(CC=C(C)C)c1O)CO2 [Licorisoflavan A],10 to 80%
12,CC(C)=CCc1cc(-c2coc3cc(O)c(CC=C(C)C)c(O)c3c2=O)ccc1O [Lupalbigenin],> 80%
13,CC(C)=CCc1c(O)cc2c(c1O)C(=O)[C@@]1(O)c3ccc(O)cc3O[C@H]1O2 [Lupinol C],> 80%
14,CC(C)=CCc1c(O)cc(O)c2c(=O)c(-c3ccc(O)cc3)coc12 [Lupiwighteone],> 80%
15,CC(C)=CCc1c(O)cc2occ(-c3ccc(O)cc3O)c(=O)c2c1O [Luteone],> 80%
16,CC(C)=CCc1c(-c2ccc(O)cc2O)oc2c(CC=C(C)C)c(O)cc(O)c2c1=O [Mulberrin],> 80%
17,CC(C)=CCc1cc(-c2coc3cc(O)ccc3c2=O)ccc1O [Neobavaisoflavone],10 to 80%
18,CC(C)=CCc1c(O)ccc2c1O[C@H]1c3ccc(O)cc3OC[C@@H]21 [Phaseollidin],> 80%
19,CC(C)=CCc1c(O[C@@H]2O[C@H](CO)[C@@H](O)[C@H](O)[C@H]2O)cc(O)c2c1O[C@H](c1ccc(O)cc1)[C@@H](O)C2=O [Phellamurin],> 80%
20,COc1ccc(-c2oc3c(CC=C(C)C)c(O)cc(O)c3c(=O)c2O[C@@H]2O[C@@H](C)[C@H](O)[C@@H](O)[C@H]2O[C@@H]2O[C@H](CO)[C@@H](O)[C@H](O)[C@H]2O)cc1 [Sagittatoside A],> 80%
21,COc1ccc(-c2oc3c(CC=C(C)C)c(O)cc(O)c3c(=O)c2O[C@@H]2O[C@@H](C)[C@H](O)[C@@H](O)[C@H]2O[C@@H]2OC[C@@H](O)[C@H](O)[C@H]2O)cc1 [Sagittatoside B],> 80%
22,COc1ccc(-c2oc3c(CC=C(C)C)c(O)cc(O)c3c(=O)c2O[C@@H]2O[C@@H](C)[C@H](O)[C@@H](OC(C)=O)[C@H]2O[C@@H]2O[C@H](CO)[C@@H](O)[C@H](O)[C@H]2O)cc1 [Sagittatoside C],> 80%
23,CC(C)=CCCC1(C)CCc2c(cc(O)c3c2OC(c2ccc(O)cc2O)CC3=O)O1 (stereo not drawn) [Sanggenol L],> 80%
24,CC(C)=CCC/C(C)=C/Cc1c(O)c(CC=C(C)C)cc(C2CC(=O)c3c(O)cc(O)cc3O2)c1O (stereo not drawn) [Sanggenol P],> 80%

row,Structure (SMILES),remaining activity at 17 µM
1,CC(C)=CCCC1(C)C=Cc2c(ccc([C@@H]3CC(=O)c4c(O)cc(O)cc4O3)c2O)O1 (stereo partly drawn) [Sanggenon N],> 80%
2,CC(C)=CC[C@]12Oc3cc(O)c([C@H]4C=C(C)C[C@H](c5ccc(O)cc5O)[C@H]4C(=O)c4cc(O)cc(O)c4)c(O)c3C(=O)[C@@]1(O)Oc1cc(O)ccc12 [Sanggenone C],< 10%
3,CC(C)=CC[C@]12Oc3cc(O)c([C@@H]4C=C(C)C[C@H](c5ccc(O)cc5O)[C@H]4C(=O)c4cc(O)cc(O)c4)c(O)c3C(=O)[C@@]1(O)Oc1cc(O)ccc12 [Sanggenone D],< 10%
4,CC(C)=CCCC1(C)C=Cc2c(O)ccc(-c3oc4cc(O)cc(O)c4c(=O)c3CC=C(C)C)c2O1 (stereo not drawn) [Sanggenone K],> 80%
5,CC(C)=CCc1c(O)cc2c(c1O)C(=O)[C@H](O)[C@@H](c1ccc(O)cc1)O2 [Shuterin],> 80%
6,COc1cc(O)c(CC=C(C)C)c2oc(-c3ccc(O)cc3)c(O)c(=O)c12 [Sophoflavescenol],> 80%
7,CC(C)=CCc1c(O)cc(O)c2c1OC(c1cc3c(cc1O)O[C@@H](c1ccc(O)cc1)[C@@H]3c1cc(O)cc(O)c1)CC2=O (stereo partly drawn) [Sophoraflavanone H],> 80%
8,C=C(C)[C@H](CC=C(C)C)Cc1c(O)cc(O)c2c1OC(c1cc3c(cc1O)O[C@@H](c1ccc(O)cc1)[C@@H]3c1cc(O)cc(O)c1)CC2=O (stereo partly drawn) [Sophoraflavanone I],10 to 80%
9,O=C1CC(c2ccc(O)cc2O)Oc2cc(O)cc(O)c21 (stereo not drawn) [Steppogenin],> 80%
10,COc1c(-c2ccc(O)cc2)oc2cc(O)c(CC=C(C)C)c(O)c2c1=O [Topazolin],> 80%
11,COc1c(-c2cc(O)c(O)c(CC=C(C)C)c2)oc2cc(O)cc(O)c2c1=O [Uralenol-3-methylether],> 80%
12,CC(C)=CCc1cc(-c2oc3cc(O)cc(O)c3c(=O)c2O)cc(O)c1O [Uralenol],> 80%
13,CC(C)=CCc1c(O)cc2occ(-c3ccc(O)cc3)c(=O)c2c1O [Wighteone],> 80%
14,CC(C)=CCc1cc([C@@H]2CC(=O)c3c(O)cc(O)cc3O2)cc(CC=C(C)C)c1O [abyssinone V],> 80%
15,COc1c(-c2ccc(O)c(O)c2)oc2c(CC=C(C)C)c(O)c(CC=C(C)C)c(O)c2c1=O [broussoflavonol B],> 80%
16,CC(C)=CCc1cc(-c2oc3cc(O)c(CC=C(C)C)c(O)c3c(=O)c2O)cc(O)c1O [broussonol E],> 80%
17,CC(C)=CCc1cc([C@H]2Oc3cc(O)cc(O)c3C(=O)[C@@H]2O)c(O)c(CC=C(C)C)c1O [cathayanon I],10 to 80%
18,C=C(C)[C@H](CC=C(C)C)Cc1c(O)c(CC=C(C)C)c(O)c2c1O[C@H](c1ccc(O)cc1O)[C@@H](O)C2=O [kushenol M],> 80%
19,CC(C)=CCC/C(C)=C/Cc1cc(C2CC(=O)c3c(O)cc(O)cc3O2)c(O)cc1O (stereo not drawn) [kuwanon E],10 to 80%
20,C=C(C)C(O)Cc1c(O)c(CC=C(C)C)c2occ(-c3ccc(O)c(O)c3)c(=O)c2c1O (stereo not drawn) [millewanin G],> 80%
21,C=C(C)C(O)Cc1c(O)c(CC=C(C)C)c(O)c2c(=O)c(-c3ccc(O)c(O)c3)coc12 (stereo not drawn) [millewanin H],10 to 80%
22,CC(C)=CCc1c(O)cc(O)c2c1O[C@H](c1ccc(O)cc1)[C@@H](O)C2=O [neophellamuretin],> 80%
23,CC(C)=CCC/C(C)=C/Cc1c(O)ccc(C2CC(=O)c3c(O)cc(O)cc3O2)c1O (stereo not drawn) [sanggenol A],10 to 80%
24,CC(C)=CCc1c2c(c(O)c3c(=O)c(-c4ccc(O)cc4)coc13)C=CC(C)(C)O2 [warangalone],10 to 80%
